Reference: PMC12218921, “An adaptive peptide-binding site in ubiquitin receptor hRpn13 revealed by structural studies” (Nature Communications, 2025)

Biological target: T1, hRpn13_ΔMTT (Homo sapiens, UniProt Q16186)
T1 construct: recombinant plasmid of hRpn13 Pru (1–150) cloned into the pRSET vector; GST (N, cleaved yes); residual Gly-Ser (^cG-^dS) left after cleavage; made in house; host or cells: Escherichia coli BL21 (DE3); pGEX-4T-1 plasmid synthesized by GenScript (Addgene 237412)
Assay: 1H-15N HSQC NMR titration / chemical shift perturbation (CSP), 0.1 mM 15N-labeled hRpn13_ΔMTT with unlabeled peptide
Format: binding
Settings: 20-fold molar excess peptide
Procedure: The similar spectral effects by adding ENT or ENT_M1S is readily apparent by quantifying and plotting the shifting across the Pru amino acid sequence (Supplementary Fig. 10b, c).
All ^1H-^15N HSQC experiments were acquired on samples dissolved in NMR buffer (20 mM sodium phosphate, pH 6.5, 50 mM NaCl, 1 mM TCEP, 10% D2O) unless specified, in which case 2 mM DTT replaced TCEP. The samples were purified in DTT-containing buffer and then exchanged into NMR buffer by using Zeba Protein Desalting columns (Thermo Fisher Scientific). The pH was measured and adjusted to 6.5. All NMR experiments were performed at 25 °C on a Bruker Advance 600 MHz spectrometer equipped with a cryogenically cooled probe. The data were processed by NMRpipe[46] (version 11.5) and spectra visualized and analyzed with NMR-FAM-SPARKY[47] (version 3.190) by using previous chemical shift assignments[12],[23] and NMRbox[48]. The amide nitrogen and hydrogen chemical shift perturbations (CSP) were mapped for each amino acid according to Eq. 1.1 CSP=0.2ΔδN2+ΔδH2
ΔδH, change in amide proton value (in parts per million); ΔδN, change in amide nitrogen value (in parts per million).
Supplementary Figure 9: 2D NMR experiments indicate ENT binding to hRpn13 Pru. a) ^1H-^15N HSQC spectrum of 0.1 mM ^15N-labeled hRpn13 (1-150, black) or hRpn13_ΔMTT (green). Select residues are labeled with amino acids in the Pru helix, proteasome binding region, and termini in blue, purple, and orange, respectively. Arrows indicate direction of shifting. b, c) ^1H-^15N HSQC spectra of 0.1 mM of ^15N-labeled hRpn13_ΔMTT alone (black) or with ENT present at equimolar (red), 2-fold (orange), 5-fold (yellow), 10-fold (green), 15-fold (blue), or 20-fold (purple) molar excess. […] All spectra were acquired at 600 MHz and 25°C in 20 mM sodium phosphate, pH 6.5, 100 mM NaCl, 1 mM TCEP, 10% D2O. ppm, part per million.

T1 sequence (Q16186 4-150, stated change not applied): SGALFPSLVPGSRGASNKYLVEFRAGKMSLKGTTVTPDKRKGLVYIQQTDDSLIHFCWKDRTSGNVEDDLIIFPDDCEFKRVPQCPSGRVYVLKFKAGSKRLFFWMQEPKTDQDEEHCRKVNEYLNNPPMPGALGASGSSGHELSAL

With “GPGSSTT [ENT_M1S, ENT M1 replaced with serine]” the “CSP A6” value was 0.001673, the “CSP A28” value was 0.004472 and the “CSP A100” value was 0.001095. For the same substance, the “CSP A136” value was 0.001, the “CSP A139” value was 0.001342 and the “CSP A149” value was 0.001342. For the same substance, the “CSP C60” value was 0.004494, the “CSP C80” value was 0.0004472 and the “CSP C88” value was 0.005727. The “CSP C121” value was 0.01167, the “CSP D41” value was 0.0008944 and the “CSP D53” value was 0.002049. For the same substance, the “CSP D54” value was 0.003347, the “CSP D63” value was 0.004919 and the “CSP D71” value was 0.004147. The “CSP D72” value was 0.004583, the “CSP D78” value was 0.00502 and the “CSP D79” value was 0.004472. The “CSP D115” value was 0.005385, the “CSP D117” value was 0.02256 and the “CSP E25” value was 0.004472. The “CSP E70” value was 0.002683, the “CSP E81” value was 0.003715 and the “CSP E111” value was 0.01001. The “CSP E118” value was 0.03156, the “CSP E119” value was 0.0177 and the “CSP E146” value was 0.005177. The “CSP F8” value was 0.0004472, the “CSP F26” value was 0.01613 and the “CSP F59” value was 0.004583. The “CSP F76” value was 0.008012, the “CSP F82” value was 0.002683 and the “CSP F98” value was 0.005459. The “CSP F106” value was 0.003715, the “CSP F107” value was 0.002049 and the “CSP G5” value was 0. The “CSP G17” value was 0.002236, the “CSP G29” value was 0.0008944 and the “CSP G45” value was 0.003715. The “CSP G67” value was 0.005899, the “CSP G91” value was 0.001673 and the “CSP G101” value was 0.001789. For the same substance, the “CSP G135” value was 0.002049, the “CSP G138” value was 0.002049 and the “CSP G141” value was 0.001789. The “CSP G144” value was 0.0008944, the “CSP H58” value was 0.00743 and the “CSP H120” value was 0.04026. The “CSP H145” value was 0.04954, the “CSP I49” value was 0.003286 and the “CSP I57” value was 0.003286. For the same substance, the “CSP I75” value was 0, the “CSP K21” value was 0.001095 and the “CSP K30” value was 0.007668. The “CSP K34” value was 0.002049, the “CSP K42” value was 0.002191 and the “CSP K62” value was 0.001789. The “CSP K83” value was 0.00634, the “CSP K97” value was 0.001 and the “CSP K99” value was 0.002049. The “CSP K103” value was 0.001673, the “CSP K113” value was 0.004472 and the “CSP K123” value was 0.00743. The “CSP L7” value was 0.001, the “CSP L11” value was 0.0008944 and the “CSP L23” value was 0.001095. The “CSP L33” value was 0.002408, the “CSP L46” value was 0.002049 and the “CSP L56” value was 0.004099. For the same substance, the “CSP L73” value was 0.002049, the “CSP L96” value was 0.0004472 and the “CSP L105” value was 0.001095. For the same substance, the “CSP L128” value was 0.003131, the “CSP L137” value was 0.001673 and the “CSP L147” value was 0.004494. The “CSP L150” value was 0.001673, the “CSP M31” value was 0 and the “CSP M109” value was 0.003286. For the same substance, the “CSP M133” value was 0.002, the “CSP N20” value was 0 and the “CSP N68” value was 0.001789. For the same substance, the “CSP N125” value was 0.003347, the “CSP N129” value was 0.003 and the “CSP N130” value was 0.002683. The “CSP Q50” value was 0.001095, the “CSP Q51” value was 0.001 and the “CSP Q87” value was 0.008295. The “CSP R16” value was 0, the “CSP R27” value was 0.008112 and the “CSP R43” value was 0.0008944. The “CSP R64” value was 0.003, the “CSP R84” value was 0 and the “CSP R92 backbone” value was 0.002449. The “CSP R92 sidechain” value was 0.01312, the “CSP R104” value was 0.004099 and the “CSP R122” value was 0.006768. The “CSP S4” value was 0.003715, the “CSP S10” value was 0.001 and the “CSP S15” value was 0.002236. For the same substance, the “CSP S19” value was 0.002049, the “CSP S32” value was 0.001095 and the “CSP S55” value was 0.001342. The “CSP S66” value was 0.001, the “CSP S102” value was 0.001342 and the “CSP S140” value was 0.001095. For the same substance, the “CSP S142” value was 0.001342, the “CSP S143” value was 0.002049 and the “CSP S148” value was 0.0004472. For the same substance, the “CSP T36” value was 0.001342, the “CSP T37” value was 0.002191 and the “CSP T39” value was 0.002683. For the same substance, the “CSP T52” value was 0.001095, the “CSP T65” value was 0.001342 and the “CSP T114” value was 0.01524. The “CSP V12” value was 0.002049, the “CSP V24” value was 0 and the “CSP V47” value was 0.002683. For the same substance, the “CSP V69” value was 0.003715, the “CSP V93” value was 0.006542 and the “CSP V95” value was 0.003131. For the same substance, the “CSP V124” value was 0.007759, the “CSP W61” value was 0.009165 and the “CSP W108” value was 0.004025. For the same substance, the “CSP Y22” value was 0.001095, the “CSP Y48” value was 0.002864 and the “CSP Y94” value was 0.002449. For the same substance, the “CSP Y127” value was 0.004382.
